Experimental findings from patent US20250000855A1, “USE OF APOMORPHINE AS THERAPEUTIC AGENT FOR NECROPTOSIS-RELATED DISEASES” (INDUSTRY-ACADEMIC COOPERATION FOUNDATION, YONSEI UNIVERSITY, priority 2021, published 2025) are described below.

pKd: −log10 of the molar value.

One data set deals with DSS-induced colitis. The data set can be described thus: DSS-induced colitis mouse model. The format is in vivo, C57BL/6 mice. How it is done: An animal experiment was performed on 6 to 8-week-old male C57BL/6 mice in accordance with the procedures approved by the Animal Care and Use Committee of the Yonsei Laboratory Animal Research Center (YLARC, 2018-0024) at Yonsei University. The mice were housed in polypropylene cages with a maximum of four mice per cage under constant temperature and humidity, and the light/dark cycle was 12 hours/12 hours. All mice were given an acclimation period of at least 7 days before participation.
For colitis induced by dextran sulfate sodium (DSS, 36-50 kDa, MP Biomedicals), the mice were administered 2.5% DSS in drinking water for 7 days. The mice were randomly divided into 8 groups as follows. • 1) Control • 2) Apomorphine-treated group (=APO; STK088477, Vitas-M, 1.5 mg/kg, daily intraperitoneal injection) • 3) APO-treated group (15 mg/kg, daily intraperitoneal injection) 4) DSS-treated group • 5) DSS and necrostatine-1-treated group (NEC-1; Biovision, 1864-5, 1.5 mg/kg, daily intraperitoneal injection) • 6) DSS and APO-treated group (0.15 mg/kg, daily intraperitoneal injection) • 7) DSS and APO-treated group (1.5 mg/kg, daily intraperitoneal injection) • 8) DSS and APO-treated group (15 mg/kg, daily intraperitoneal injection)
The body weights and disease activity index (DAI) scores of the mice were recorded daily. DAI was calculated by adding scores of body weight loss (0 point=none, 1 point=1%-5% weight loss, 2 points=5%-10% weight loss, 3 points=10%-15% weight loss, 4 points=15% or more weight loss), stool consistency/diarrhea (0 point=normal, 2 points=loose stools, 4 points=watery diarrhea), and bleeding (0 point=no bleeding, 2 points=slight bleeding, 4 points=total bleeding). At the end of the experiment, the mice were sacrificed, the colon was removed, and then changes in colon length were confirmed, and a weight loss was measured.
At the end of the experiment, the mice were sacrificed, and the colon was removed (without the cecum). The removed colon was washed with cold phosphate-buffered saline (PBS; Welgene, LB001-02) before the measurement of its length. The measured colon was prepared for further analysis by cutting intestinal segments along the mesenteric line and washing with PBS. Then, the intestinal segments were placed in a petri dish and fixed with modified Bouin's fixative (50% ethanol/5% acetic acid in dH2O). The lumen side was maintained upward by holding the proximal end with forceps in one hand and a toothpick in the other. Then, the flat open end of the colon was pulled with the forceps and the proximal end was wrapped around the toothpick. The entire large intestine was wrapped, placed in a cassette, and immersed in 4% paraformaldehyde (Biosesang, PC2031-100-00) at 4° C. overnight.
After the experiment, colon tissues collected from the sacrificed mice were fixed in 4% paraformaldehyde overnight. Swiss-rolled and fixed colon specimens were embedded in paraffin. The specimens were cut into 5-μm sections, and then the sections were stained with hematoxylin and eosin (H & E). The histological evaluation of colitis lesions along the entire length was performed with reference to a scoring system of the degree of crypt structure damage (0˜3), the degree of inflammatory cell infiltration (0˜3), and submucosal edema (0˜3).
5-μm cut paraffin sections were blocked with 5% BSA-supplemented TBS-T, and then the sections and primary antibodies were co-incubated at 4° C. overnight. Secondary antibodies were added and incubated for 1 hour. […]

Another data set has as its target T1, MLKL protein (Homo sapiens, UniProt Q8NB16).
T1 construct: purchased Abcam ab241453
T1 sequence (Q8NB16 1-471): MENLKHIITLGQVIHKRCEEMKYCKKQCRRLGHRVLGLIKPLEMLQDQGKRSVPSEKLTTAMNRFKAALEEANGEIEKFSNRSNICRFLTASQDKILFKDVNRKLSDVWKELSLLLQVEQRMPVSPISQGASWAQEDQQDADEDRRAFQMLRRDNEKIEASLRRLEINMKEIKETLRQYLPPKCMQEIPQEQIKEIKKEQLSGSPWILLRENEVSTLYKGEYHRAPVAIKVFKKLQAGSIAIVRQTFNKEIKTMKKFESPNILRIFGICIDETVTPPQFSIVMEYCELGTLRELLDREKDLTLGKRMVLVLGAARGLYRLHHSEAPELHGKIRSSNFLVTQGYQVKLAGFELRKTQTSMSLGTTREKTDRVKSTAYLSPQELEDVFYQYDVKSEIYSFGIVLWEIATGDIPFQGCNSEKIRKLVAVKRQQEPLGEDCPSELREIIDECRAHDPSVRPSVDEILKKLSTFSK
The data set can be described thus: Surface plasmon resonance (SPR) analysis, binding to MLKL protein. The following applies: MLKL immobilized on CM5 chip, Biacore T200, 25° C., 10 mM HEPES pH 7.4. How it is done: The interaction between MLKL and apomorphine (=APO) was detected through surface plasmon resonance (SPR) analysis using Biacore T200 (GE Healthcare). For pH scouting, a buffer consisting of 10 mM sodium acetate (pH 4.0 to 6.0) was used. MLKL protein (Abcam, ab241453), and MLKL N-term (amino acids 1-154) protein that had been purified in a laboratory were immobilized on the surface of a sensor chip CM5 (GE Healthcare) under scouted buffer conditions. To deduce an Rligand value, a coupling process was performed based on the molecular weights of MLKL, MLKL N-term domain (MW ligand), and APO (MW analyte). Oxidized (24 hr, RT incubation) and reduced (+DTT(DL-dithiothreitol)) forms of APO were injected into a running buffer (flow rate: 10 μl/min) consisting of 10 mM HEPES (pH 7.4) at 25° C. A sensorgram was recorded and analyzed in real time using control software provided by the Biacore T200 system itself. Six or more concentrations of APO were used in combination, and each KD value was derived. All run data was calculated using BIAevaluation Software (GE Healthcare).
SPR analysis was used to analyze the interaction pattern between APO and the MLKL protein (Experimental Method 1-10). […] Here, the analysis was performed by binding MLKL and the MLKL N-term domain protein immobilized on a CM5 chip with APO having six concentrations.
On the technique in general: SPR reads the build-up and loss of mass on a sensor chip optically.

`CN1CCc2cccc3c2[C@H]1Cc1ccc(O)c(O)c1-3` [APO, apomorphine]: the “characteristic symptoms of colitis observed by H&E staining and PAS staining” value with DSS-induced colitis (DSS mice, APO 0.15, 1.5, and 15 mg/kg daily intraperitoneal injection, FIG. 7A) is “alleviated in a concentration-dependent manner”. Besides, in the data set with DSS-induced colitis (DSS mice, APO daily intraperitoneal injection, FIG. 7A), the HI score result is listed as “reduce”. In the data set with DSS-induced colitis (DSS mice, APO daily intraperitoneal injection, FIG. 7B), the “degree of colon shortening” value was “reduce”. For the same molecule, in the data set on DSS-induced colitis (DSS mice, APO daily intraperitoneal injection, FIG. 7C), the DAI score result was “reduce”. The “differences due to treatment with APO alone (without DSS)” value in the data set with DSS-induced colitis (mice without DSS, APO 1.5 or 15 mg/kg daily intraperitoneal injection) is given as “no differences”. In addition, the pKd at MLKL protein was 7.90.

As usually defined, the pKd is the negative decadic logarithm of the Kd, by convention in mol/L.
